Measured values: patent US10065941B2, “Aminotriazine derivative and pharmaceutical composition comprising the same” (Shionogi & Co., Ltd., priority 2013, dated 2018)

Tests used:
human P2X3 receptor = human P2X3 receptor (Homo sapiens (Human), UniProt P56373); assay: Evaluation of human P2X3 receptor inhibitory activity (Test Example 1); assay type: cell-based; conditions: C6BU-1 cell transfected with human P2X3 receptor gene, FLIPR 384
How it was run: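 FLIPR calcium read-out: signal taken as peak fluorescence after ATP addition divided by starting fluorescence, and IC50 calculated from it. Compound added 5 min before 150 nM ATP solution (pre-dispense stock) to Fluo-3-AM-loaded C6BU-1 cells stably transfected with human P2X3; HEPES buffer pH 7.5 with probenecid.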

[1] = target: human ether-a-go-go related gene (hERG) channel (Homo sapiens (Human), UniProt Q12809); assay: hERG test, whole cell patch clamp in CHO cells (Test Example 13); assay type: cell-based; conditions: CHO cells expressing hERG channel, tail peak current, 10 minutes
human ether-a-go-go related gene (hERG) channel, sequence (Q12809 whole entry): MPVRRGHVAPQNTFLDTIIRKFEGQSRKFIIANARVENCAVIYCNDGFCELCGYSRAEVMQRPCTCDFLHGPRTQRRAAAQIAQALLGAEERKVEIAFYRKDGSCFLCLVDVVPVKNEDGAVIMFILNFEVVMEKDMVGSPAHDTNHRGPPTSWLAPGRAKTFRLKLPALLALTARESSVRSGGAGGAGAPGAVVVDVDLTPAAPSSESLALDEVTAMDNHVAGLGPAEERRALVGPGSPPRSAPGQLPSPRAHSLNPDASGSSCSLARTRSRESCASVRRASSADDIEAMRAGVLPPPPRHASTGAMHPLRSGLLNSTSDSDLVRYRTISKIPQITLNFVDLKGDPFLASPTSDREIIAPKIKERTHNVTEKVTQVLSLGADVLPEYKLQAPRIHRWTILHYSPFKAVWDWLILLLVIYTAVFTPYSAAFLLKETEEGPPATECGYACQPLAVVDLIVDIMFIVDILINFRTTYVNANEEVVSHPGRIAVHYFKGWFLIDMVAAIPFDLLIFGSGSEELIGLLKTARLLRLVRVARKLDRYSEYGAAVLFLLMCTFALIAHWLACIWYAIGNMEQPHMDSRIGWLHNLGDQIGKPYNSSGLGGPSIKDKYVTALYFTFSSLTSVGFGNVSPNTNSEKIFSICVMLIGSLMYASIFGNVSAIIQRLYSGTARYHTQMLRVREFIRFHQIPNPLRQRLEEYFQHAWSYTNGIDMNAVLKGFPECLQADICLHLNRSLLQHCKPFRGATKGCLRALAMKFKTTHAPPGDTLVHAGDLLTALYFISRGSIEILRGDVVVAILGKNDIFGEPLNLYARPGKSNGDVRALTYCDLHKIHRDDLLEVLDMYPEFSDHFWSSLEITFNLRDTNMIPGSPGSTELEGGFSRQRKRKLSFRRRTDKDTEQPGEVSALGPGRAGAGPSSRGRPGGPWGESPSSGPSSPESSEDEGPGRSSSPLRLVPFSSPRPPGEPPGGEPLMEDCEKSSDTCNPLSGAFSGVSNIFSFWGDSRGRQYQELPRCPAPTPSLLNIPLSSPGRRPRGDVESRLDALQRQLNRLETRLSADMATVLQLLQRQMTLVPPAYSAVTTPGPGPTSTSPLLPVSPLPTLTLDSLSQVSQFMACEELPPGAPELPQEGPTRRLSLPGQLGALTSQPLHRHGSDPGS
Description: For the purpose of assessing risk of an electrocardiogram QT interval prolongation of the compound of the present invention, effects of the compound of the present invention on delayed rectifier K+ current (IKr), which plays an important role in the ventricular repolarization process, was studied using CHO cells expressing human ether-a-go-go related gene (hERG) channel.
After a cell was retained at a membrane potential of −80 mV by whole cell patch clamp method using an automated patch clamp system (QPatch; Sophion Bioscience A/S) and gave a leak potential of −50 mV, IKr induced by depolarization pulse stimulation at +20 mV for 2 seconds and, further, repolarization pulse stimulation at −50 mV for 2 seconds, was recorded. […] From the recording IKr, an absolute value of the tail peak current was measured based on the current value at the resting membrane potential using analysis software (Falster Patch; Sophion Bioscience A/S). Further, the % inhibition relative to the tail peak current before application of the compound of the present invention was calculated, and compared with the vehicle-applied group (0.1% dimethyl sulfoxide solution) to assess influence of the compound of the present invention on IKr.

[2] = Pharmacokinetic test: bioavailability and total body clearance (Test Example 15); assay type: in vivo; conditions: SD rats, from AUCs of oral and intravenous groups
Procedure: • (1) Animals: SD rats were used • (2) Breeding conditions: SD rats were allowed to freely take solid food and sterilized tap water. • (3) Dose and grouping: orally or intravenously administered at a predetermined dose; grouping was as follows (Dose depends on the compound)
Oral administration: 1 mg/kg (n=2)
The total body clearance (CLtot) was calculated by dividing the dose by the AUC of the intravenous administration group.

[3] = test system: partial sciatic nerve ligation model in rats; assay: Analgesic effect in a Seltzer model, Evaluation (1): mechanical allodynia, von Frey filaments (Test Example 6); assay type: in vivo; conditions: rat Seltzer model, reversal of mechanical allodynia (von Frey), single oral administration of 1 mg/kg, at 3 hours
Description: Rats were anaesthetized using isoflurane/O2 inhalation anaesthesia. After induction of anesthesia, the left thigh was shaved. An incision was made in the skin just below the hip bone. The muscle was bluntly dissected to expose the sciatic nerve. One third (⅓) to one half (½) of the sciatic nerve thickness was tightly ligated and the wound was closed. The right thigh is used as a sham-operated control. The right thigh undergoes an identical procedure with the left hind limb, however, the sciatic nerve is not manipulated or ligated.
Two weeks after nerve ligation, the effect on mechanical allodynia was assessed using a series of von Frey filaments. For habituation, the rats were placed into a plastic cage on a wire mesh bottom. The mechanical sensitivity (mechanical threshold) of the hind paws was estimated with a series of von Frey filaments (0.4-26 g). The measurement of mechanical sensitivity of the right and left hind paws was performed to obtain predose mechanical sensitivity. […] On the day before the experiment, the rats were evaluated with a series of von Frey filaments to familiarize them with the test procedure. […] Post-dose mechanical sensitivities of the right and left hind paws were measured at approximately 1 to 5 hours after drug administration. Percent reversal of mechanical allodynia for each rat was calculated using the following formula. […]

[4] = Metabolism stability test, pooled human hepatic microsomes (Test Example 11); assay type: in vitro ADME; conditions: human liver microsomes, 30 minutes, compound concentration 0.5 μmol/L
Procedure: Using commercially available pooled human hepatic microsomes, a test compound is reacted for a constant time, a remaining rate is calculated by comparing a reacted sample and an unreacted sample, thereby, a degree of metabolism in liver is assessed.
A reaction was performed (oxidative reaction) at 37° C. for 0 minute or 30 minutes in the presence of 1 mmol/L NADPH in 0.2 mL of a buffer (50 mmol/L tris-HCl pH 7.4, 150 mmol/L potassium chloride, 10 mmol/L magnesium chloride) containing 0.5 mg protein/mL of human liver microsomes. After the reaction, 50 μL of the reaction solution was added to 100 μL of a methanol/acetonitrile=1/1 (v/v), mixed and centrifuged at 3000 rpm for 15 minutes. The test compound in the supernatant was quantified by LC/MS/MS, and a remaining amount of the test compound after the reaction was calculated, letting a compound amount at 0 minute reaction time to be 100%.
The remaining rate at the compound concentration 0.5 μmol/L are shown below.

rat P2X3 receptor = rat P2X3 receptor (Rattus norvegicus (Rat), UniProt P49654); assay: Evaluation of rat P2X3 receptor inhibitory activity (Test Example 3); assay type: cell-based; conditions: rat P2X3 receptor gene expressed in C6BU-1 cell; read-out: ratP2X3 IC50
rat P2X3 receptor, sequence (P49654 whole entry): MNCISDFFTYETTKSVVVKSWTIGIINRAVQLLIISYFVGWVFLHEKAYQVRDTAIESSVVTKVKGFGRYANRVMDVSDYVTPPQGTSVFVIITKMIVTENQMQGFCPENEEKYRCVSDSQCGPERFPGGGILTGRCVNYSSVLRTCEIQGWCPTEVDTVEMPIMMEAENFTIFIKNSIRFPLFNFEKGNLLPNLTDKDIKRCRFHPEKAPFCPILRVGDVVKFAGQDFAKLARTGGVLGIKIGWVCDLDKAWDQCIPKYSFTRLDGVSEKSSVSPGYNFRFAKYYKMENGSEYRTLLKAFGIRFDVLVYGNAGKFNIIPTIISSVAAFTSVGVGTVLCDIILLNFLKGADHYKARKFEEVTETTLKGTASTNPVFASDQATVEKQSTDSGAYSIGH
Procedure: Rat P2X3 receptor gene (GenBank accession number NM_031075) was expressed in C6BU-1 cell. The C6BU-1 cells were seeded in a 96-well microtiter plate at a concentration of 2500 cells/well and cultured in the medium (7.0% fetal bovine serum, 7.0% horse serum, and 1% antibiotic and antifungal in DMEM) for one day at 37° C. under 5% carbon dioxide atmosphere. The plasmid was transfected into the cells using transfection reagent FuGENE6 (Promega). The transfected cells were cultured in the medium for one day at 37° C. under 5% carbon dioxide atmosphere. […] Measurement of fluorescence intensity by FDSS 3000 was started, and 40 μL of DMSO solutions containing different concentrations of the test compound as prepared by dilution with dilution buffer (20 mM HEPES, 137 mM NaCl, 5.27 mM KCl, 0.9 mM MgCl2, 1.26 mM CaCl2, 5.6 mM D-glucose, 2.5 mM probenecid, 0.1% Pluronic F-127, pH7.5) were dispensed to each well through the built-in automatic dispenser. Five minutes after, 50 nM ATP solution (50 μL) prepared by dilution with the dilution buffer was dispensed through the built-in automatic dispenser, and the measurement of fluorescence intensity was continued for 4 min. For each well, the specific maximum fluorescence intensity was calculated as the ratio of the maximum fluorescence intensity after addition of the ATP solution to the fluorescence intensity at the starting of the measurement. […]

human P2X3 receptor, sequence (P56373 whole entry): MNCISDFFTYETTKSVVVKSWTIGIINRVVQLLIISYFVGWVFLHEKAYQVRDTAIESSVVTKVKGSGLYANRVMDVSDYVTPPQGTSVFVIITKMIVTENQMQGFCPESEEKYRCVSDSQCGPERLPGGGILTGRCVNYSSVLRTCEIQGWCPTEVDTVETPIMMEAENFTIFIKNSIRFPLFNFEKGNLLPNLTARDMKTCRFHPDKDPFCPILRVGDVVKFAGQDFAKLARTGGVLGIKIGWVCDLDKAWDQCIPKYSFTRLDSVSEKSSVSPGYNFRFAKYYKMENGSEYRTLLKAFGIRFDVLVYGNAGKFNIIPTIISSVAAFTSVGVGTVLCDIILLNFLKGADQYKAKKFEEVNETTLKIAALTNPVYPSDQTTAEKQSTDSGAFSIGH

SMILES	IC50 (human P2X3 receptor)	hERG Inhibition [1]	BA [2]	% reversal [3]	Metabolism Stability (remaining rate) [4]	IC50 (rat P2X3 receptor)
CC(C)(Cn1c(=O)[nH]/c(=N\c2ccc(Oc3ccc(Cl)cn3)cc2)n(Cc2ccc(Cl)cc2)c1=O)C(=O)O [Compound I-006]	5 nM	5.3%	–	–	–	–
Cc1ccc(Cn2c(=O)n(C[C@H](C)C(=O)O)c(=O)[nH]/c2=N\c2ccc(Oc3cccc(F)n3)cc2)cc1 [Compound I-057]	5 nM	–	66.4%	21.4%	91%	–
C[C@@H](C(=O)O)[C@H](C)n1c(=O)[nH]/c(=N\c2ccc(Oc3ccc(F)cn3)c(F)c2)n(Cc2ccc(Cl)cc2)c1=O [Compound I-002]	5 nM	7.3%	–	–	99%	6 nM
O=c1[nH]/c(=N\c2ccc(Oc3ccc(F)cn3)cc2)n(Cc2ccc(Cl)cc2)c(=O)n1[C@H]1C[C@H](C(=O)O)C1 [Compound I-019]	7 nM	–	–	27.9%	96%	–
COc1cc(Oc2ccc(/N=c3\[nH]c(=O)n([C@@H](C)[C@@H](C)C(=O)O)c(=O)n3Cc3ccc(Cl)cc3)cc2)ccn1 [Compound R-009]	7 nM	–	–	–	–	4 nM
